Data as given in paper PMC7232201 (Microorganisms, 2020).
Counter-ions that a name gives are not always drawn.

Target: T1, ArsR (Helicobacter pylori, UniProt O24973)
T1 construct: expressed in E. coli BL21(DE3)
Test: isothermal titration calorimetry
Assay type: binding
Settings: read-out: ITC ^a / Kd

T1 sequence (O24973 whole entry): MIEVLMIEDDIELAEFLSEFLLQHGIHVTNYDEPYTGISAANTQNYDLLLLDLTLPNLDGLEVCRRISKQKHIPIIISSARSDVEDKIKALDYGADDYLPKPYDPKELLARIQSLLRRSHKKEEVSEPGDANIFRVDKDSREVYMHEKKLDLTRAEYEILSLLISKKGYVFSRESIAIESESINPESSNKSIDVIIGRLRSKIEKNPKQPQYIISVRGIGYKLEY

Compound	Kd [µM]
C[C@H](CCC(=O)O)[C@H]1CC[C@H]2[C@@H]3CC[C@@H]4C[C@H](O)CC[C@]4(C)[C@H]3CC[C@]12C [Lithocholic acid]	4.9
CCCCCN(CCCCC)C(=O)C(CCC(=O)O)NC(=O)c1ccc(Cl)c(Cl)c1 (stereo not drawn) [Lorglumide sodium salt]	0.67
CC[N+](C)(CC)CCC[n+]1c(-c2ccccc2)c2cc(N)ccc2c2ccc(N)cc21 [Propidium iodide]	18
